molecular target: recombinant human SYK (GST-hSYK fusion protein) (Homo sapiens (Human), UniProt P43405); settings: read-out: rhSYK Activity; Table 26
Text: Homogeneous Time-Resolved Fluorescence (HTRF) Assay for the Recombinant Human SYK Enzyme:

| Structure (SMILES) | IC50 [nM] |
| --- | --- |
| CCOC(=O)C1CCC(F)(c2ncc(-c3cccc(Nc4nccc(C(F)(F)F)n4)c3)s2)CC1 (stereo not drawn) [Example 26-5] | 1000 to 10000 |

same assay, conditions: read-out: rhSYK Activity; Table 33B

| Structure (SMILES) | IC50 [nM] |
| --- | --- |
| Cc1cc(Nc2nccc(C(F)(F)F)n2)cc(-c2cnc(C3(O)CCCC3Cc3ccc(C(C)C(=O)O)cc3)s2)c1 (stereo not drawn) [Example 33B-2] | < 100 |
| Cc1cc(Nc2nccc(C(F)(F)F)n2)cc(-c2cnc(C3(O)CC(C(=O)O)C(C)(C)C3)s2)c1 (stereo not drawn) [Example 33B-3] | < 100 |
| COC1CC(O)(c2ncc(-c3cc(C)cc(Nc4nccc(C(F)(F)F)n4)c3)s2)CCC1C(=O)O (stereo not drawn) [Example 33B-13] | < 100 |
| COC1CC(O)(c2ncc(-c3cc(C)cc(Nc4nccc(C(F)(F)F)n4)c3)s2)CCC1C(=O)O (stereo not drawn) [Example 33B-14] | < 100 |
| Cc1cc(Nc2nccc(C(F)(F)F)n2)cc(-c2cnc(C3(O)CCC(C(=O)O)C4(CC4)C3)s2)c1 (stereo not drawn) [Example 33B-17] | < 100 |
| Cc1cc(Nc2nccc(C(F)(F)F)n2)cc(-c2cnc(C3(O)CCCC(C(=O)O)C3)s2)c1 (stereo not drawn) [Example 33B-21] | < 100 |
| Cc1cc(Nc2nccc(C)n2)cc(-c2cnc(C3(O)CCC(C(=O)O)C(c4ccccc4C)C3)s2)c1 (stereo not drawn) [Example 33B-29] | < 100 |
| Cc1cc(Nc2nccc(C)n2)cc(-c2cnc(C3(O)CCC(C(=O)O)C(c4ccsc4)C3)s2)c1 (stereo not drawn) [Example 33B-30] | 100 to 1000 |
| Cc1cc(Nc2nccc(C)n2)cc(-c2cnc(C3(O)CCC(C(=O)O)C(c4ccc(F)cc4)C3)s2)c1 (stereo not drawn) [Example 33B-31] | < 100 |
| CCC1C(C)C(C(=O)O)CCC1(O)c1ncc(-c2cc(C)cc(Nc3nccc(C(F)(F)F)n3)c2)s1 (stereo not drawn) [Example 33B-40] | < 100 |

same assay, conditions: read-out: rhSYK Activity; Table 33C

| Structure (SMILES) | IC50 [nM] |
| --- | --- |
| Cc1cc(Nc2nccc(C)n2)cc(-c2cnc(C3(O)C4CC5CC3CC(C(=O)O)(C5)C4)s2)c1 (stereo not drawn) [Example 33C-20] | < 100 |

same assay, conditions: read-out: rhSYK Activity; Table 33D

| Structure (SMILES) | IC50 [nM] |
| --- | --- |
| Cc1cc(Nc2nccc(C(F)(F)F)n2)cc(-c2cnc(C(C)(O)/C=C/C(C)(C)C(=O)O)s2)c1 (stereo not drawn) [Example 33D-5] | < 100 |
| COC(=O)C(C)(C)/C=C/C(C)(O)c1ncc(-c2cc(C)cc(Nc3nccc(C(F)(F)F)n3)c2)s1 (stereo not drawn) [Example 33D-6] | < 100 |
| Cc1cc(Nc2nccc(C(F)(F)F)n2)cc(-c2cnc(C(C)(O)c3ccc(NC(=O)CCC(=O)O)cc3)s2)c1 (stereo not drawn) [Example 33D-14] | < 100 |
| Cc1cc(Nc2nccc(C(F)(F)F)n2)cc(-c2cnc(C(C)(O)c3ccc(NC(=O)CCCC(=O)O)cc3)s2)c1 (stereo not drawn) [Example 33D-15] | < 100 |
| Cc1cc(Nc2nccc(C(F)(F)F)n2)cc(-c2cnc(C(C)(O)c3ccc(C(=O)O)cc3)s2)c1 (stereo not drawn) [Example 33D-16] | < 100 |
| COC(=O)c1ccc(C(C)(O)c2ncc(-c3cc(C)cc(Nc4nccc(C(F)(F)F)n4)c3)s2)cc1 (stereo not drawn) [Example 33D-17] | 100 to 1000 |

same assay, conditions: read-out: rhSYK Activity; Table 36A

| Structure (SMILES) | IC50 [nM] |
| --- | --- |
| CCOC(=O)C1CCC(c2ncc(-c3cc(C)cc(Nc4nccc(C(F)(F)F)n4)c3)s2)CC1 (stereo not drawn) [Example 36A-2] | 100 to 1000 |
| O=C(O)C1CCC(c2ncc(-c3cccc(Nc4nccc(C(F)(F)F)n4)c3)s2)CC1 (stereo not drawn) [Example 36A-4] | < 100 |
| Cc1cc(Nc2nccc(C(F)(F)F)n2)cc(-c2cnc(C3CCCC(=O)C3)s2)c1 (stereo not drawn) [Example 36A-8] | < 100 |
| Cc1cc(Nc2nccc(C(F)(F)F)n2)cc(-c2cnc(C3CCCCC(=O)C3)s2)c1 (stereo not drawn) [Example 36A-10] | < 100 |
| Cc1cc(Nc2nccc(C(F)(F)F)n2)cc(-c2cnc(C3CCC4(CC3)OCCO4)s2)c1 [Example 36A-12] | 100 to 1000 |

same assay, conditions: read-out: rhSYK Activity; Table 113A

| Structure (SMILES) | IC50 [nM] |
| --- | --- |
| COc1ccnc(Nc2cc(C)cc(-c3cnc([C@]4(O)CC[C@@H](C(=O)O)[C@@H](C)C4)s3)c2)n1 [Example 113A-17] | < 100 |
| Cc1cc(Nc2ncc(F)c(C)n2)cc(-c2cnc([C@@]3(O)CC[C@H](C(=O)O)[C@H](C)C3)s2)c1 [Example 113A-18] | < 100 |
| CCOC(=O)C1CCC(O)(c2ncc(-c3cc(C)cc(Nc4nccc(OCCCOC)n4)c3)s2)CC1C (stereo not drawn) [Example 113A-47] | 100 to 1000 |
| COC(=O)[C@H]1CC[C@](O)(c2ncc(-c3cc(C)cc(Nc4nccc(C(F)(F)F)n4)c3)s2)CC1(C)C [Example 113A-65] | < 100 |
| CCOC(=O)C1CCC(O)(c2ncc(-c3cc(C)cc(Nc4nccc(C(F)(F)F)n4)c3)s2)C(C)C1C (stereo not drawn) [Example 113A-77] | < 100 |

same assay, conditions: read-out: rhSYK Activity; Table 113D, upper part

| Structure (SMILES) | IC50 [nM] |
| --- | --- |
| COC(=O)c1ccc(/C=C/c2ncc(-c3cc(C)cc(Nc4nccc(C(F)(F)F)n4)c3)s2)cc1 [Example 113D-4] | 100 to 1000 |
| COC(=O)c1ccc(C2(c3ncc(-c4cc(C)cc(Nc5nccc(C(F)(F)F)n5)c4)s3)CC2)cc1 [Example 113D-8] | 100 to 1000 |

same assay, conditions: read-out: rhSYK Activity; Table 117; HTRF assay, IC50 class symbols

| Structure (SMILES) | IC50 [nM] |
| --- | --- |
| Cc1cc(Nc2nccc(C(F)(F)F)n2)cc(-c2cnc(C3(O)CCC(C)(C(N)=O)CC3)s2)c1 (stereo not drawn) [Example 117-3] | < 100 |

same assay, conditions: read-out: rhSYK Activity; Table 119; HTRF assay, IC50 class symbols

| Structure (SMILES) | IC50 [nM] |
| --- | --- |
| Cc1cc(Nc2nccc(C(F)(F)F)n2)cc(-c2cnc(C3(O)CCC(C(=O)NO)CC3)s2)c1 (stereo not drawn) [Example 119-16] | < 100 |
| Cc1cc(Nc2nccc(C(F)(F)F)n2)cc(-c2cnc(C3(O)CCC(C(=O)NCc4ncc[nH]4)CC3)s2)c1 (stereo not drawn) [Example 119-38] | < 100 |
| Cc1cc(Nc2nccc(C(F)(F)F)n2)cc(-c2cnc(C3(O)CCC(C(=O)NCc4cnoc4)CC3)s2)c1 (stereo not drawn) [Example 119-41] | < 100 |
| Cc1cc(Nc2nccc(C(F)(F)F)n2)cc(-c2cnc(C3(O)CCC(C(=O)NCc4ccno4)CC3)s2)c1 (stereo not drawn) [Example 119-43] | < 100 |

same assay, conditions: read-out: rhSYK Activity; recombinant human SYK, HTRF assay; class symbols

| Structure (SMILES) | IC50 [nM] |
| --- | --- |
| COC(=O)NS(=O)(=O)N1CCC(O)(c2ncc(-c3cc(C)cc(Nc4nccc(OC)n4)c3)s2)CC1 [Example 54A-18] | < 100 |
| Cc1cc(Nc2nccc(C(F)(F)F)n2)cc(-c2cnc(C3(O)CCN(C(=O)CC(=O)O)CC3)s2)c1 [Example 54A-26] | < 100 |
| CCCCNC(=O)N1CCC(O)(c2ncc(-c3cc(C)cc(Nc4nccc(C(F)(F)F)n4)c3)s2)CC1 [Example 54A-61] | < 100 |
| Cc1ccc(NC(=O)N2CCC(O)(c3ncc(-c4cc(C)cc(Nc5nccc(C(F)(F)F)n5)c4)s3)CC2)cc1 [Example 54A-62] | < 100 |
| Cc1cccc(NC(=O)N2CCC(O)(c3ncc(-c4cc(C)cc(Nc5nccc(C(F)(F)F)n5)c4)s3)CC2)c1 [Example 54A-63] | < 100 |
| Cc1cc(Nc2nccc(C(F)(F)F)n2)cc(-c2cnc(C3(O)CCN(C(=O)Nc4ccc(C)cc4C)CC3)s2)c1 [Example 54A-66] | < 100 |
| Cc1cc(Nc2nccc(C(F)(F)F)n2)cc(-c2cnc(C3(O)CCN(C(=O)Nc4cc(Cl)ccc4C)CC3)s2)c1 [Example 54A-68] | < 100 |
| Cc1cc(Nc2nccc(C(F)(F)F)n2)cc(-c2cnc(C3(O)CCN(C(=O)Nc4ccc(Cl)cc4C)CC3)s2)c1 [Example 54A-69] | < 100 |
| Cc1cc(Nc2nccc(C(F)(F)F)n2)cc(-c2cnc(C3(O)CCCN(CCF)CC3)s2)c1 (stereo not drawn) [Example 54A-82] | < 100 |
| Cc1cc(Nc2nccc(C(F)(F)F)n2)cc(-c2cnc(C3(O)CCCN(CC(=O)O)CC3)s2)c1 (stereo not drawn) [Example 54A-83] | 100 to 1000 |
| Cc1cc(Nc2nccc(C(F)(F)F)n2)cc(-c2cnc(C3(O)CCCN(CCC(=O)O)CC3)s2)c1 (stereo not drawn) [Example 54A-84] | < 100 |
| COC(=O)CCN1CCCC(O)(c2ncc(-c3cc(C)cc(Nc4nccc(C(F)(F)F)n4)c3)s2)CC1 (stereo not drawn) [Example 54A-88] | < 100 |
| Cc1cc(Nc2nccc(C(F)(F)F)n2)cc(-c2cnc(C3(O)CCCN(CC(=O)OC(C)(C)C)CC3)s2)c1 (stereo not drawn) [Example 54A-89] | < 100 |
| Cc1cc(Nc2nccc(C(F)(F)F)n2)cc(-c2cnc(C3(O)CN(C(N)=O)C3)s2)c1 [Example 54B-1] | < 100 |
| Cc1cc(Nc2ncc(F)c(C)n2)cc(-c2cnc(C3(O)CCN(C(N)=O)C3)s2)c1 (stereo not drawn) [Example 54B-16] | < 100 |
| Cc1cc(Nc2ncc(Cl)c(C)n2)cc(-c2cnc(C3(O)CCN(C(N)=O)C3)s2)c1 (stereo not drawn) [Example 54B-17] | < 100 |
| COc1nc(Nc2cc(C)cc(-c3cnc(C4(O)CCN(C(N)=O)C4)s3)c2)ncc1F (stereo not drawn) [Example 54B-18] | < 100 |
| Cc1cc(Nc2nccc(C(F)(F)F)n2)cc(-c2cnc(C3(O)CCN(C(=O)c4ocnc4C)C3)s2)c1 (stereo not drawn) [Example 54B-31] | < 100 |
| Cc1cc(Nc2nccc(C(F)(F)F)n2)cc(-c2cnc(C3(O)CCN(C4CC=C(C(=O)O)CC4)C3)s2)c1 (stereo not drawn) [Example 54B-33] | < 100 |
| COC(=O)c1cccc(N2CCC(O)(c3ncc(-c4cc(C)cc(Nc5nccc(C(F)(F)F)n5)c4)s3)C2)c1 (stereo not drawn) [Example 54B-35] | < 100 |
| Cc1cc(Nc2nccc(C(C)C)n2)cc(-c2cnc(C3(O)CCCN(C(=O)c4cnnn4C)CC3)s2)c1 (stereo not drawn) [Example 54D-17] | < 100 |
| Cc1cc(Nc2nccc(C(C)C)n2)cc(-c2cnc(C3(O)CCCN(C(=O)c4nnnn4C)CC3)s2)c1 (stereo not drawn) [Example 54D-18] | < 100 |

same assay, conditions: read-out: rhSYK activity

| Structure (SMILES) | IC50 [nM] |
| --- | --- |
| Cc1cc(Nc2nccc(C(F)(F)F)n2)cc(-c2cnc(C3(O)CCC(NC(=O)C(CO)(CO)CO)CC3)s2)c1 (stereo not drawn) [Example 54E-34] | < 100 |
| Cc1cc(Nc2nccc(C(F)(F)F)n2)cc(-c2cnc(C3(NS(=O)(=O)C(F)(F)F)COC3)s2)c1 [Example 61B-6] | < 100 |
| COc1ccnc(Nc2cc(C)cc(-c3cnc(C4(NC(N)=O)CCC4)s3)c2)n1 [Example 64-4] | < 100 |
| Cc1cc(Nc2nccc(OC3CCNCC3)n2)cc(-c2cnc(C3(NC(N)=O)CCC3)s2)c1 [Example 64-5] | < 100 |
| Cc1cc(Nc2nccc(OC3CCNCC3)n2)cc(-c2cnc(C3(NC(=O)NC(N)=O)CCC3)s2)c1 [Example 65-5] | < 100 |
| Cc1cc(Nc2nccc(C(F)(F)F)n2)cc(-c2cnc(C3(NC(=O)C4(C(N)=O)CC4)COC3)s2)c1 [Example 67-1] | < 100 |
| Cc1cc(Nc2nccc(OCCN3CC(F)C(F)C3)n2)cc(-c2cnc(C3(O)CCC3)s2)c1 (stereo not drawn) [Example 108A-5] | < 100 |
| Cc1cc(Nc2nccc(OCCC3CCCN3C)n2)cc(-c2cnc(C3(O)CCC3)s2)c1 (stereo not drawn) [Example 108A-17] | < 100 |
| CCCSc1ccnc(Nc2cc(C)cc(-c3cnc(C4(O)CCC4)s3)c2)n1 [Example 108A-42] | < 100 |

From patent US8759366B2, “Aminopyrimidines as SYK inhibitors” (Merck Sharp & Dohme Corp., priority 2009, dated 2014)
